The values below come from ChEMBL document CHEMBL4477228, “Discovery of 2-((3-cyanopyridin-2-yl)thio)acetamides as human lactate dehydrogenase A inhibitors to reduce the growth of MG-63 osteosarcoma cells: Virtual screening and biological validation” (Bioorg Med Chem Lett, 2016).

The source made the active and inactive calls. The rule behind the calls is not given here.

In test [1] the test system is MG-63. The test is described as follows: Induction of apoptosis in human MG63 cells assessed as viable cells at 10 uM after 24 hrs by Annexin V-FITC/propidium iodide staining based flow cytometry (reference value: 95.8 %). Type of test: functional. Conditions: MG-63, 24 h, read-out: Activity.
The subject of test [2] is MG-63. The test is described as follows: Induction of apoptosis in human MG63 cells assessed as early apoptotic cells at 2 uM after 12 hrs by Annexin V-FITC/propidium iodide staining based flow cytometry (reference value: 0.4 %). Type of test: functional. Background: In flow cytometry, cells or beads pass a laser one at a time.
Test [3] relates to MG-63. The test is described as follows: Induction of apoptosis in human MG63 cells assessed as early apoptotic cells at 10 uM after 12 hrs by Annexin V-FITC/propidium iodide staining based flow cytometry (reference value: 0.4 %). Type of test: functional.
For test [4], the system named is MG-63. The test is described as follows: Induction of apoptosis in human MG63 cells assessed as early apoptotic cells at 10 uM after 6 hrs by Annexin V-FITC/propidium iodide staining based flow cytometry (reference value: 0.4 %). Format: functional.
For test [5], the system named is MG-63. The test is described as follows: Induction of apoptosis in human MG63 cells assessed as late apoptotic cells at 2 uM after 12 hrs by Annexin V-FITC/propidium iodide staining based flow cytometry (reference value: 3.2 %). Type of test: functional.
For test [6], the system named is MG-63. The test is described as follows: Induction of apoptosis in human MG63 cells assessed as necrotic cells at 10 uM after 24 hrs by Annexin V-FITC/propidium iodide staining based flow cytometry (reference value: 0.5 %). Type of test: functional.
Test [7] concerns MG-63. The test is described as follows: Cytotoxicity of human MG63 cells assessed as cell growth inhibition after 72 hrs by MTT assay. Type of test: functional, cell-based. (Tetrazolium dyes change colour on reduction, which living cells bring about.)
Test [8] deals with MG-63. The test is described as follows: Induction of apoptosis in human MG63 cells assessed as early apoptotic cells at 10 uM after 24 hrs by Annexin V-FITC/propidium iodide staining based flow cytometry (reference value: 0.4 %). Format: functional.
Test [9] deals with MG-63. The test is described as follows: Induction of apoptosis in human MG63 cells assessed as viable cells at 2 uM after 12 hrs by Annexin V-FITC/propidium iodide staining based flow cytometry (reference value: 95.8 %). Format: functional. Particulars: MG-63, 12 h, read-out: Activity.
For test [10], the system named is MG-63. The test is described as follows: Induction of apoptosis in human MG63 cells assessed as necrotic cells at 10 uM after 6 hrs by Annexin V-FITC/propidium iodide staining based flow cytometry (reference value: 0.5 %). Type of test: functional.
The test system of test [11] is MG-63. The test is described as follows: Induction of apoptosis in human MG63 cells at 10 uM by Annexin V-FITC/propidium iodide staining based flow cytometry. Type of test: functional, cell-based. Conditions: TDE = time-dependent effect.
Test [12] concerns MG-63. The test is described as follows: Induction of apoptosis in human MG63 cells assessed as viable cells at 10 uM after 6 hrs by Annexin V-FITC/propidium iodide staining based flow cytometry (reference value: 95.8 %). Type of test: functional. Conditions: MG-63, 6 h, read-out: Activity.
The test system of test [13] is MG-63. The test is described as follows: Induction of apoptosis in human MG63 cells after 12 hrs by Annexin V-FITC/propidium iodide staining based flow cytometry. Type of test: functional, cell-based.
Test [14] concerns MG-63. The test is described as follows: Induction of apoptosis in human MG63 cells assessed as necrotic cells at 2 uM after 12 hrs by Annexin V-FITC/propidium iodide staining based flow cytometry (reference value: 0.5 %). Type of test: functional.
The target in test [15] is T1, L-lactate dehydrogenase A chain (Homo sapiens, UniProt P00338). The test is described as follows: Inhibition of human LDHA in MG63 cells assessed as reduction in lactate formation after 12 hrs. Type of test: cell-based.
In test [16] the test system is MG-63. The test is described as follows: Induction of apoptosis in human MG63 cells assessed as late apoptotic cells at 10 uM after 24 hrs by Annexin V-FITC/propidium iodide staining based flow cytometry (reference value: 3.2 %). Type of test: functional.
Test [17] has as its system MG-63. The test is described as follows: Induction of apoptosis in human MG63 cells assessed as early apoptotic cells at 5 uM after 12 hrs by Annexin V-FITC/propidium iodide staining based flow cytometry (reference value: 0.4 %). Format: functional.
Test [18] concerns MG-63. The test is described as follows: Induction of apoptosis in human MG63 cells assessed as viable cells at 5 uM after 12 hrs by Annexin V-FITC/propidium iodide staining based flow cytometry (reference value: 95.8 %). Format: functional. Conditions: MG-63, 12 h, read-out: Activity.
Test [19] has as its system MG-63. The test is described as follows: Induction of apoptosis in human MG63 cells assessed as viable cells at 10 uM after 12 hrs by Annexin V-FITC/propidium iodide staining based flow cytometry (reference value: 95.8 %). Type of test: functional. Particulars: MG-63, 12 h, read-out: Activity.
For test [20], the target named is T1, L-lactate dehydrogenase A chain. The test is described as follows: Inhibition of human LDHA assessed as conversion of pyruvate to lactate measuring disappearance of NADH after 10 mins by fluorescence assay.
Test [21] concerns MG-63. The test is described as follows: Induction of apoptosis in human MG63 cells assessed as late apoptotic cells at 10 uM after 6 hrs by Annexin V-FITC/propidium iodide staining based flow cytometry (reference value: 3.2 %). Type of test: functional.
Test [22] relates to MG-63. The test is described as follows: Induction of apoptosis in human MG63 cells assessed as late apoptotic cells at 5 uM after 12 hrs by Annexin V-FITC/propidium iodide staining based flow cytometry (reference value: 3.2 %). Type of test: functional.
The subject of test [23] is MG-63. The test is described as follows: Induction of apoptosis in human MG63 cells assessed as necrotic cells at 10 uM after 12 hrs by Annexin V-FITC/propidium iodide staining based flow cytometry (reference value: 0.5 %). Type of test: functional.
In test [24] the test system is MG-63. The test is described as follows: Induction of apoptosis in human MG63 cells assessed as late apoptotic cells at 10 uM after 12 hrs by Annexin V-FITC/propidium iodide staining based flow cytometry (reference value: 3.2 %). Format: functional.
Test [25] relates to MG-63. The test is described as follows: Induction of apoptosis in human MG63 cells assessed as necrotic cells at 5 uM after 12 hrs by Annexin V-FITC/propidium iodide staining based flow cytometry (reference value: 0.5 %). Type of test: functional.
Test [26] has as its target T1, L-lactate dehydrogenase A chain. The test is described as follows: Inhibition of human LDHA in MG63 cells assessed as reduction in lactate formation at 20 uM after 12 hrs. Type of test: cell-based.
Where [27] appears, read: Homo sapiens, MG-63, 72 h, read-out: EC50.

For the molecule `CCc1ccccc1NC(=O)CSc1nc(-c2ccc(OC)cc2)cc(-c2ccc(OC)cc2)c1C#N`, the values for the viability at 10 µM with MG-63 [1], in the test on MG-63 [12] and in the test on MG-63 [19] were 73.1%, 86.1% and 82.7%, respectively. Further, the Activity in the test on MG-63 [2] amounted to 2%; with MG-63 [3] it was 2.8%; in the test with MG-63 [4], 5%; in the test with MG-63 [5], 6.5%; with MG-63 [6], 0.3%; in the test on MG-63 [8] it was 3.1%. Also, the Activity was 0.8% with MG-63 [10]; “Tde” in the test on MG-63 [11]; “Dose-dependent effect” in the test with MG-63 [13]; 0.4% in the test with MG-63 [14]; 23.5% in the test with MG-63 [16]; 0.7% in the test on MG-63 [17]. Besides, the Activity in the test with MG-63 [21] is given as 8.1%; in the test on MG-63 [22], 10.3%; with MG-63 [23], 0.4%; in the test with MG-63 [24], 14.1%; in the test with MG-63 [25], 0.8%. Further, the EC50 with MG-63 [7] (setting [27]) turned out to be 0.98 µM. In addition, in the test on MG-63 [9], the viability at 2 µM was 91%. Moreover, the inhibition entry in test [15] is “Dose-dependent effect”. For the same molecule, the viability at 5 µM in the test on MG-63 [18] was determined as 88.2%. Also, the IC50 in test [20] came out at 1.24 µM.
Regarding `COc1ncc(-c2ccc3c(Nc4cccc(C(=O)O)c4)c(S(N)(=O)=O)cnc3c2)c(OC)n1`, the inhibition entry in test [26] was “Active”. Also, in the test with MG-63 [7] (setting [27]), the EC50 worked out at 28.4 µM. Also, the IC50 in test [20] stood at 7.4 µM.
Consider `Cc1ccc(-c2cc(-c3ccc(F)cc3)nc(SCC(=O)Nc3cccc(C)c3)c2C#N)cc1`, for which the EC50 in the test on MG-63 [7] (setting [27]) is 6.72 µM. Moreover, the IC50 in test [20] came to 3.4 µM.
Turning to `COc1ccc(-c2cc(-c3ccc(OC)cc3)c(C#N)c(SCC(=O)Nc3ccc(C)c(C)c3)n2)cc1`, the EC50 result with MG-63 [7] (mg-63) is given as “Not Active”. For the same molecule, in test [20], the IC50 was greater than 100 µM.
Consider `COc1ccc(-c2cc(-c3ccc(OC)cc3)c(C#N)c(SCC(=O)Nc3c(C)cccc3C)n2)cc1`, for which, in the test on MG-63 [7] (setting [27]), the EC50 came to 35.4 µM. For the same molecule, in test [20], the IC50 is 22.5 µM.
As for `COc1ccc(-c2cc(-c3ccccc3)c(C#N)c(SCC(=O)Nc3cc(C)cc(C)c3)n2)cc1`, in the test on MG-63 [7] (setting [27]), the EC50 is 5.78 µM. Further, in [20], the IC50 turned out to be 6.59 µM.

A word on the EC50: it is the concentration giving half of the maximal effect. By IC50 is commonly meant the concentration that gives 50% inhibition.
